Reference: ChEMBL document CHEMBL6109153, “Development of Membrane-Targeting Osthole Derivatives Containing Pyridinium Quaternary Ammonium Moieties with Potent Anti-Methicillin-Resistant Staphylococcus aureus Properties” (J Med Chem, 2025)
≈ marks a conversion by molar mass, not a printed value.

Tests used:
Staphylococcus aureus [1] = test: Antibacterial activity against Staphylococcus aureus ATCC 29213 incubated for 16 to 20 hrs by broth microdilution method; type: functional; conditions: time 16-20 hrs
Staphylococcus aureus [2] = test: Antibacterial activity against methicillin-resistant Staphylococcus aureus M11 incubated for 16 to 20 hrs by broth microdilution method; type: functional; conditions: time 16-20 hrs
Staphylococcus aureus [3] = test: Antibacterial activity against methicillin-resistant Staphylococcus aureus M12 incubated for 16 to 20 hrs by broth microdilution method; type: functional; conditions: time 16-20 hrs
Staphylococcus aureus [4] = test: Antibacterial activity against methicillin-resistant Staphylococcus aureus M13 incubated for 16 to 20 hrs by broth microdilution method; type: functional; conditions: time 16-20 hrs
Staphylococcus aureus [5] = test: Antibacterial activity against methicillin-resistant Staphylococcus aureus M14 incubated for 16 to 20 hrs by broth microdilution method; type: functional; conditions: time 16-20 hrs
Staphylococcus aureus [6] = test: Antibacterial activity against methicillin-resistant Staphylococcus aureus M16 incubated for 16 to 20 hrs by broth microdilution method; type: functional; conditions: time 16-20 hrs
Staphylococcus aureus [7] = test: Antibacterial activity against methicillin-resistant Staphylococcus aureus M17 incubated for 16 to 20 hrs by broth microdilution method; type: functional; conditions: time 16-20 hrs
Staphylococcus aureus [8] = test: Antibacterial activity against methicillin-resistant Staphylococcus aureus M20 incubated for 16 to 20 hrs by broth microdilution method; type: functional; conditions: time 16-20 hrs
Staphylococcus aureus [9] = test: Antibacterial activity against methicillin-resistant Staphylococcus aureus M21 incubated for 16 to 20 hrs by broth microdilution method; type: functional; conditions: time 16-20 hrs
Staphylococcus aureus [10] = test: Antibacterial activity against methicillin-resistant Staphylococcus aureus M22 incubated for 16 to 20 hrs by broth microdilution method; type: functional; conditions: time 16-20 hrs
Staphylococcus aureus [11] = test: Antibacterial activity against methicillin-resistant Staphylococcus aureus M23 incubated for 16 to 20 hrs by broth microdilution method; type: functional; conditions: time 16-20 hrs
Escherichia coli = test: Antibacterial activity against Escherichia coli ATCC 25922 incubated for 16 to 20 hrs by broth microdilution method; type: functional; conditions: time 16-20 hrs
[12] = Hemolytic activity against sheep erythrocytes; type: toxicity, cell-based, Ovis aries, Erythrocyte

Row | Structure (SMILES) | MIC (Staphylococcus aureus [1]) | MIC (Staphylococcus aureus [2]) | MIC (Staphylococcus aureus [3]) | MIC (Staphylococcus aureus [4]) | MIC (Staphylococcus aureus [5]) | MIC (Staphylococcus aureus [6]) | MIC (Staphylococcus aureus [7]) | MIC (Staphylococcus aureus [8]) | MIC (Staphylococcus aureus [9]) | MIC (Staphylococcus aureus [10]) | MIC (Staphylococcus aureus [11]) | MIC (Escherichia coli) | HC50 [12]
1 | CC(C)=CCc1c(OCCCSc2cc[n+](CC(=O)N(C(C)C)C(C)C)cc2)ccc2ccc(=O)oc12.[Br-] | 4 µg/mL | 2 µg/mL | 8 µg/mL | 8 µg/mL | 2 µg/mL | 4 µg/mL | 4 µg/mL | 2 µg/mL | 4 µg/mL | 4 µg/mL | 4 µg/mL | > 128 µg/mL | > 160 µg/mL
2 | CC(C)=CCc1c(OCCCCCSc2cc[n+](CC(=O)N(CC(C)C)CC(C)C)cc2)ccc2ccc(=O)oc12.[Br-] | 1 µg/mL | 8 µg/mL | 8 µg/mL | 8 µg/mL | 8 µg/mL | 16 µg/mL | 2 µg/mL | 8 µg/mL | 2 µg/mL | 2 µg/mL | 8 µg/mL | > 128 µg/mL | > 160 µg/mL
3 | CC(C)=CCc1c(OCCCCCSc2cc[n+](CC(=O)N(C(C)C)C(C)C)cc2)ccc2ccc(=O)oc12.[Br-] | 2 µg/mL | 1 µg/mL | 4 µg/mL | 4 µg/mL | 2 µg/mL | 4 µg/mL | 2 µg/mL | 2 µg/mL | 2 µg/mL | 2 µg/mL | 2 µg/mL | > 128 µg/mL | > 160 µg/mL
4 | CCCCCCNC(=O)C[n+]1ccc(SCCCCCOc2ccc3ccc(=O)oc3c2CC=C(C)C)cc1.[Br-] | 64 µg/mL | 2 µg/mL | 2 µg/mL | 2 µg/mL | 2 µg/mL | 2 µg/mL | 2 µg/mL | 4 µg/mL | 2 µg/mL | 2 µg/mL | 2 µg/mL | > 128 µg/mL | > 160 µg/mL
5 | CC(C)=CCc1c(OCCCCSc2cc[n+](CC(=O)N(C)c3ccccc3)cc2)ccc2ccc(=O)oc12.[Br-] | 4 µg/mL | 2 µg/mL | 8 µg/mL | 8 µg/mL | 4 µg/mL | 4 µg/mL | 16 µg/mL | 2 µg/mL | 8 µg/mL | 8 µg/mL | 16 µg/mL | > 128 µg/mL | > 160 µg/mL
6 | CCCCCNC(=O)C[n+]1ccc(SCCCOc2ccc3ccc(=O)oc3c2CC=C(C)C)cc1.[Br-] | 2 µg/mL | 2 µg/mL | 4 µg/mL | 8 µg/mL | 2 µg/mL | 4 µg/mL | 2 µg/mL | 2 µg/mL | 2 µg/mL | 2 µg/mL | 8 µg/mL | 64 µg/mL | > 160 µg/mL
7 | C[C@@H](O)[C@H]1C(=O)N2C(C(=O)O)=C(S[C@@H]3CN[C@H](C(=O)N(C)C)C3)[C@H](C)[C@H]12 [MEROPENEM] |  |  |  |  |  |  |  |  |  |  |  | 0.063 µg/mL (≈ 0.164 µM) | 
8 | CC(C)=CCc1c(OCCCCSc2cc[n+](CC(=O)N(C(C)C)C(C)C)cc2)ccc2ccc(=O)oc12.[Br-] | 2 µg/mL | 1 µg/mL | 4 µg/mL | 4 µg/mL | 2 µg/mL | 2 µg/mL | 2 µg/mL | 1 µg/mL | 2 µg/mL | 2 µg/mL | 2 µg/mL | > 128 µg/mL | > 160 µg/mL
9 | CCCCN(CCCC)C(=O)C[n+]1ccc(SCCCOc2ccc3ccc(=O)oc3c2CC=C(C)C)cc1.[Br-] | 1 µg/mL | 1 µg/mL | 4 µg/mL | 4 µg/mL | 1 µg/mL | 2 µg/mL | 1 µg/mL | 1 µg/mL | 2 µg/mL | 2 µg/mL | 2 µg/mL | > 128 µg/mL | > 160 µg/mL
10 | CCCNC(=O)C[n+]1ccc(SCCCCCOc2ccc3ccc(=O)oc3c2CC=C(C)C)cc1.[Br-] | 2 µg/mL | 2 µg/mL | 8 µg/mL | 8 µg/mL | 2 µg/mL | 2 µg/mL | 8 µg/mL | 2 µg/mL | 8 µg/mL | 8 µg/mL | 4 µg/mL | > 128 µg/mL | 190 µg/mL
11 | CCCCCNC(=O)C[n+]1ccc(SCCCCOc2ccc3ccc(=O)oc3c2CC=C(C)C)cc1.[Br-] | 4 µg/mL | 2 µg/mL | 4 µg/mL | 4 µg/mL | 1 µg/mL | 2 µg/mL | 2 µg/mL | 1 µg/mL | 4 µg/mL | 4 µg/mL | 1 µg/mL | > 128 µg/mL | > 160 µg/mL
12 | CCCNC(=O)C[n+]1ccc(SCCCCOc2ccc3ccc(=O)oc3c2CC=C(C)C)cc1.[Br-] | 16 µg/mL | 4 µg/mL | 16 µg/mL | 16 µg/mL | 8 µg/mL | 8 µg/mL | 8 µg/mL | 8 µg/mL | 2 µg/mL | 2 µg/mL | 8 µg/mL | > 128 µg/mL | > 160 µg/mL
13 | COc1ccc2ccc(=O)oc2c1CC=C(C)C [OSTHOLE] | > 64 µg/mL | > 64 µg/mL | 64 µg/mL (≈ 262 µM) | > 64 µg/mL | 64 µg/mL (≈ 262 µM) | 64 µg/mL (≈ 262 µM) | 64 µg/mL (≈ 262 µM) | 64 µg/mL (≈ 262 µM) | > 64 µg/mL | 64 µg/mL (≈ 262 µM) | > 64 µg/mL | > 64 µg/mL | > 80 µg/mL
14 | CC(C)=CCc1c(OCCCCSc2cc[n+](CC(=O)N3CCOCC3)cc2)ccc2ccc(=O)oc12.[Br-] | 32 µg/mL | 32 µg/mL | 64 µg/mL | 64 µg/mL | 32 µg/mL | 32 µg/mL | 32 µg/mL | 32 µg/mL | 32 µg/mL | 32 µg/mL | 32 µg/mL | > 128 µg/mL | > 160 µg/mL
15 | CCCN(CCC)C(=O)C[n+]1ccc(SCCCCCOc2ccc3ccc(=O)oc3c2CC=C(C)C)cc1.[Br-] | 1 µg/mL | 1 µg/mL | 2 µg/mL | 4 µg/mL | 1 µg/mL | 1 µg/mL | 2 µg/mL | 1 µg/mL | 1 µg/mL | 1 µg/mL | 2 µg/mL | > 128 µg/mL | > 160 µg/mL
16 | CCCNC(=O)C[n+]1ccc(SCCCOc2ccc3ccc(=O)oc3c2CC=C(C)C)cc1.[Br-] | 8 µg/mL | 8 µg/mL | 16 µg/mL | 32 µg/mL | 8 µg/mL | 8 µg/mL | 16 µg/mL | 8 µg/mL | 8 µg/mL | 8 µg/mL | 8 µg/mL | > 128 µg/mL | > 160 µg/mL
17 | CCCN(CCC)C(=O)C[n+]1ccc(SCCCOc2ccc3ccc(=O)oc3c2CC=C(C)C)cc1.[Br-] | 4 µg/mL | 4 µg/mL | 16 µg/mL | 16 µg/mL | 8 µg/mL | 8 µg/mL | 8 µg/mL | 4 µg/mL | 8 µg/mL | 8 µg/mL | 8 µg/mL | 128 µg/mL | > 160 µg/mL
18 | CCCN(CCC)C(=O)C[n+]1ccc(SCCCCOc2ccc3ccc(=O)oc3c2CC=C(C)C)cc1.[Br-] | 2 µg/mL | 2 µg/mL | 4 µg/mL | 8 µg/mL | 2 µg/mL | 2 µg/mL | 2 µg/mL | 1 µg/mL | 2 µg/mL | 2 µg/mL | 2 µg/mL | > 128 µg/mL | > 160 µg/mL
19 | CC(C)=CCc1c(OCCCSc2cc[n+](CC(=O)N(C)c3ccccc3)cc2)ccc2ccc(=O)oc12.[Br-] | 8 µg/mL | 4 µg/mL | 16 µg/mL | 16 µg/mL | 4 µg/mL | 8 µg/mL | 8 µg/mL | 4 µg/mL | 8 µg/mL | 8 µg/mL | 8 µg/mL | > 128 µg/mL | > 160 µg/mL
20 | CCCCNC(=O)C[n+]1ccc(SCCCCCOc2ccc3ccc(=O)oc3c2CC=C(C)C)cc1.[Br-] | 2 µg/mL | 1 µg/mL | 2 µg/mL | 2 µg/mL | 1 µg/mL | 2 µg/mL | 2 µg/mL | 1 µg/mL | 1 µg/mL | 1 µg/mL | 2 µg/mL | > 128 µg/mL | > 160 µg/mL
21 | CCCCCCNC(=O)C[n+]1ccc(SCCCOc2ccc3ccc(=O)oc3c2CC=C(C)C)cc1.[Br-] | 1 µg/mL | 2 µg/mL | 4 µg/mL | 4 µg/mL | 2 µg/mL | 4 µg/mL | 4 µg/mL | 2 µg/mL | 4 µg/mL | 4 µg/mL | 2 µg/mL | 64 µg/mL | > 160 µg/mL
22 | CCCCN(CCCC)C(=O)C[n+]1ccc(SCCCCCOc2ccc3ccc(=O)oc3c2CC=C(C)C)cc1.[Br-] | 1 µg/mL | 0.5 µg/mL | 1 µg/mL | 1 µg/mL | 0.5 µg/mL | 1 µg/mL | 2 µg/mL | 0.5 µg/mL | 1 µg/mL | 1 µg/mL | 1 µg/mL | > 128 µg/mL | > 160 µg/mL
23 | CC(C)=CCc1c(OCCCSc2cc[n+](CC(=O)N3CCOCC3)cc2)ccc2ccc(=O)oc12.[Br-] | 128 µg/mL | 32 µg/mL | 128 µg/mL | 128 µg/mL | 64 µg/mL | 64 µg/mL | 64 µg/mL | 64 µg/mL | 32 µg/mL | 32 µg/mL | 128 µg/mL | > 128 µg/mL | > 160 µg/mL
